How the values were obtained:
HCC1143 = assay: CelltiterGlo viability cell assay; type: cell-based
Experimental: (§1) Supplementary Figure 13. […] Viability of
(§2) (a) Multiple Myeloma lines and (b) Breast Cancer cell lines following 3 or 6 days treatment with […]
(§3) manufacturer’s instructions as described in the Supplementary methods. Data are normalized to DMSO control. N=3 biological replicates, +/- SEM. Source data are provided as a Source Data […]
(§4) CelltiterGlo viability cell assay
(§5) Cells were seeded in 96 well plates at per-well densities of 10000 (MDA-MB436, ATCC-HTB130), 15000 (8226, kind gift from Rodger Tiedemann, Princess Margaret Cancer Centre), […]
(§6) kind gift from Rodger Tiedemann, Princess Margaret Cancer Centre) and 50000 (CAL851, kind gift from Mathieu Lupien, Princess Margaret Cancer Centre) and were treated at increasing concentrations of compounds ranging from 0.01 μM to 30 μM and assessed for proliferation using CelltiterGlo (Promega) following manufacturer’s instructions, as readout on days 3 and 6 as indicated. All cell lines were mycoplasma negative, as determined by MycoAlert™ Mycoplasma Detection Kit(Lonza). […]

CAL851 = assay: CelltiterGlo viability cell assay; type: cell-based
Experimental: as §1, §2, §3, §4, §5, §6

`COc1cc(OC)cc(-c2noc(N3CCN(C)C4(CCN(c5ccccc5)CC4)C3)n2)c1` [MRK-740N] was tested, and the “viability Average” value (HCC1143; HCC1143, 3 day, 0.01 uM) was 99.63, the “viability Replicate 1” value (HCC1143; HCC1143, 3 day, 0.01 uM) was 94.06 and the “viability Replicate 2” value (HCC1143; HCC1143, 3 day, 0.01 uM) was 105.87. For the same compound, the “viability Replicate 3” value (HCC1143; HCC1143, 3 day, 0.01 uM) was 98.96, the “viability Average” value (HCC1143; HCC1143, 3 day, 0.03 uM) was 100.04 and the “viability Replicate 1” value (HCC1143; HCC1143, 3 day, 0.03 uM) was 98.98. The “viability Replicate 2” value (HCC1143; HCC1143, 3 day, 0.03 uM) was 103.01, the “viability Replicate 3” value (HCC1143; HCC1143, 3 day, 0.03 uM) was 98.14 and the “viability Average” value (HCC1143; HCC1143, 3 day, 0.1 uM) was 100.66. For the same compound, the “viability Replicate 1” value (HCC1143; HCC1143, 3 day, 0.1 uM) was 94.28, the “viability Replicate 2” value (HCC1143; HCC1143, 3 day, 0.1 uM) was 108.89 and the “viability Replicate 3” value (HCC1143; HCC1143, 3 day, 0.1 uM) was 98.81. For the same compound, the “viability Average” value (HCC1143; HCC1143, 3 day, 0.3 uM) was 101.81, the “viability Replicate 1” value (HCC1143; HCC1143, 3 day, 0.3 uM) was 94.36 and the “viability Replicate 2” value (HCC1143; HCC1143, 3 day, 0.3 uM) was 110.71. For the same compound, the “viability Replicate 3” value (HCC1143; HCC1143, 3 day, 0.3 uM) was 100.36, the “viability Average” value (HCC1143; HCC1143, 3 day, 1 uM) was 102.28 and the “viability Replicate 1” value (HCC1143; HCC1143, 3 day, 1 uM) was 95.62. For the same compound, the “viability Replicate 2” value (HCC1143; HCC1143, 3 day, 1 uM) was 111.25, the “viability Replicate 3” value (HCC1143; HCC1143, 3 day, 1 uM) was 99.98 and the “viability Average” value (HCC1143; HCC1143, 3 day, 3 uM) was 102.58. For the same compound, the “viability Replicate 1” value (HCC1143; HCC1143, 3 day, 3 uM) was 95.70, the “viability Replicate 2” value (HCC1143; HCC1143, 3 day, 3 uM) was 110.25 and the “viability Replicate 3” value (HCC1143; HCC1143, 3 day, 3 uM) was 101.79. For the same compound, the “viability Average” value (HCC1143; HCC1143, 3 day, 9.5 uM) was 96.93, the “viability Replicate 1” value (HCC1143; HCC1143, 3 day, 9.5 uM) was 91.87 and the “viability Replicate 2” value (HCC1143; HCC1143, 3 day, 9.5 uM) was 108.74. For the same compound, the “viability Replicate 3” value (HCC1143; HCC1143, 3 day, 9.5 uM) was 90.19, the “viability Average” value (HCC1143; HCC1143, 3 day, 30 uM) was 42.44 and the “viability Replicate 1” value (HCC1143; HCC1143, 3 day, 30 uM) was 41.34. For the same compound, the “viability Replicate 2” value (HCC1143; HCC1143, 3 day, 30 uM) was 45.73, the “viability Replicate 3” value (HCC1143; HCC1143, 3 day, 30 uM) was 40.25 and the “viability Average” value (HCC1143; HCC1143, 6 day, 0.03 uM) was 106.15. For the same compound, the “viability Replicate 1” value (HCC1143; HCC1143, 6 day, 0.03 uM) was 104.58, the “viability Replicate 2” value (HCC1143; HCC1143, 6 day, 0.03 uM) was 106.98 and the “viability Replicate 3” value (HCC1143; HCC1143, 6 day, 0.03 uM) was 106.88. For the same compound, the “viability Average” value (HCC1143; HCC1143, 6 day, 0.1 uM) was 106.29, the “viability Replicate 1” value (HCC1143; HCC1143, 6 day, 0.1 uM) was 110.44 and the “viability Replicate 2” value (HCC1143; HCC1143, 6 day, 0.1 uM) was 106.94. The “viability Replicate 3” value (HCC1143; HCC1143, 6 day, 0.1 uM) was 101.48, the “viability Average” value (HCC1143; HCC1143, 6 day, 0.3 uM) was 109.27 and the “viability Replicate 1” value (HCC1143; HCC1143, 6 day, 0.3 uM) was 115.47. The “viability Replicate 2” value (HCC1143; HCC1143, 6 day, 0.3 uM) was 108.44, the “viability Replicate 3” value (HCC1143; HCC1143, 6 day, 0.3 uM) was 103.89 and the “viability Average” value (HCC1143; HCC1143, 6 day, 1 uM) was 112.12. The “viability Replicate 1” value (HCC1143; HCC1143, 6 day, 1 uM) was 119.58, the “viability Replicate 2” value (HCC1143; HCC1143, 6 day, 1 uM) was 108.44 and the “viability Replicate 3” value (HCC1143; HCC1143, 6 day, 1 uM) was 108.34. The “viability Average” value (HCC1143; HCC1143, 6 day, 3 uM) was 118.66, the “viability Replicate 1” value (HCC1143; HCC1143, 6 day, 3 uM) was 128.58 and the “viability Replicate 2” value (HCC1143; HCC1143, 6 day, 3 uM) was 111.85. For the same compound, the “viability Replicate 3” value (HCC1143; HCC1143, 6 day, 3 uM) was 115.55, the “viability Average” value (HCC1143; HCC1143, 6 day, 9.5 uM) was 112.33 and the “viability Replicate 1” value (HCC1143; HCC1143, 6 day, 9.5 uM) was 117.62. For the same compound, the “viability Replicate 2” value (HCC1143; HCC1143, 6 day, 9.5 uM) was 107.90, the “viability Replicate 3” value (HCC1143; HCC1143, 6 day, 9.5 uM) was 111.46 and the “viability Average” value (HCC1143; HCC1143, 6 day, 30 uM) was 53.32. For the same compound, the “viability Replicate 1” value (HCC1143; HCC1143, 6 day, 30 uM) was 56.13, the “viability Replicate 2” value (HCC1143; HCC1143, 6 day, 30 uM) was 63.79 and the “viability Replicate 3” value (HCC1143; HCC1143, 6 day, 30 uM) was 40.04. For the same compound, the “viability Average” value (CAL851; CAL851, 3 day, 0.01 uM) was 102.43, the “viability Replicate 1” value (CAL851; CAL851, 3 day, 0.01 uM) was 104.57 and the “viability Replicate 2” value (CAL851; CAL851, 3 day, 0.01 uM) was 100.53. The “viability Replicate 3” value (CAL851; CAL851, 3 day, 0.01 uM) was 102.20, the “viability Average” value (CAL851; CAL851, 3 day, 0.03 uM) was 101.16 and the “viability Replicate 1” value (CAL851; CAL851, 3 day, 0.03 uM) was 95.74. The “viability Replicate 2” value (CAL851; CAL851, 3 day, 0.03 uM) was 100.94, the “viability Replicate 3” value (CAL851; CAL851, 3 day, 0.03 uM) was 106.79 and the “viability Average” value (CAL851; CAL851, 3 day, 0.1 uM) was 104.74. For the same compound, the “viability Replicate 1” value (CAL851; CAL851, 3 day, 0.1 uM) was 106.32, the “viability Replicate 2” value (CAL851; CAL851, 3 day, 0.1 uM) was 96.40 and the “viability Replicate 3” value (CAL851; CAL851, 3 day, 0.1 uM) was 111.49. The “viability Average” value (CAL851; CAL851, 3 day, 0.3 uM) was 106.71, the “viability Replicate 1” value (CAL851; CAL851, 3 day, 0.3 uM) was 111.33 and the “viability Replicate 2” value (CAL851; CAL851, 3 day, 0.3 uM) was 101.82. For the same compound, the “viability Replicate 3” value (CAL851; CAL851, 3 day, 0.3 uM) was 106.99, the “viability Average” value (CAL851; CAL851, 3 day, 1 uM) was 96.30 and the “viability Replicate 1” value (CAL851; CAL851, 3 day, 1 uM) was 98.38. For the same compound, the “viability Replicate 2” value (CAL851; CAL851, 3 day, 1 uM) was 96.24, the “viability Replicate 3” value (CAL851; CAL851, 3 day, 1 uM) was 94.27 and the “viability Average” value (CAL851; CAL851, 3 day, 3 uM) was 97.71. The “viability Replicate 1” value (CAL851; CAL851, 3 day, 3 uM) was 91.85, the “viability Replicate 2” value (CAL851; CAL851, 3 day, 3 uM) was 95.91 and the “viability Replicate 3” value (CAL851; CAL851, 3 day, 3 uM) was 105.37. For the same compound, the “viability Average” value (CAL851; CAL851, 3 day, 9.5 uM) was 95.86, the “viability Replicate 1” value (CAL851; CAL851, 3 day, 9.5 uM) was 89.90 and the “viability Replicate 2” value (CAL851; CAL851, 3 day, 9.5 uM) was 94.75. The “viability Replicate 3” value (CAL851; CAL851, 3 day, 9.5 uM) was 102.94, the “viability Average” value (CAL851; CAL851, 3 day, 30 uM) was 88.50 and the “viability Replicate 1” value (CAL851; CAL851, 3 day, 30 uM) was 89.70. The “viability Replicate 2” value (CAL851; CAL851, 3 day, 30 uM) was 92.97, the “viability Replicate 3” value (CAL851; CAL851, 3 day, 30 uM) was 82.83 and the “viability Average” value (CAL851; CAL851, 6 day, 0.01 uM) was 99.23. For the same compound, the “viability Replicate 1” value (CAL851; CAL851, 6 day, 0.01 uM) was 100.50.

Reference: paper PMC6917776, “Discovery of a chemical probe for PRDM9” (Nature Communications, 2019)
